The text below walks through data of patent publication US20260306463A1, “SIK INHIBITORS TO TREAT CHRONIC KIDNEY DISEASE” (The General Hospital Corporation, priority 2023, published 2026).

Assay [1] deals with bone and kidney. As to conditions: bone and kidney (ref. 7); cited from earlier work.
Assay [2] deals with mouse CKD kidneys and human kidney organoids. Put plainly: overlap of injury-regulated genes rescued by SK-124 in mouse adenine diet and human cisplatin organoid studies. The conditions noted are these: Venn overlap, both CKD models. As for the experimental part: FIGS. 13A-13E. Transcriptomic effects of SK-124 in cisplatin-induced human kidney organoid model. RNA-seq was performed on kidney organoid RNA samples (n=4/group) from FIG. 8. Volcano plot show gene regulated (>2-fold change, p(adj)<0.05) by cisplatin (versus vehicle, A) or within cisplatin-treated organoids by SK-124 (versus DMSO control, B). In Volcano plot, representative fibrosis/injury markers (Col8a1, Fni, Serpinel) and proximal tubule integrity (Lrp2 and Hnf4a) are shown. Scatterplot (C) and heatmap (D) showing integration of individual RNA-seq comparisons.
Isolated RNA samples from the mouse adenine diet study and human kidney organoid experiment were submitted to Novogene and bulk-RNA sequencing on NovaSeq X Plus Ilumina Novoseq Platform. Sequencing reads were mapped to the mouse reference genome (mm10/GRCm38) or human reference genome (GRCh38/hg38) using Salmon and differential gene expression analysis was performed using DESeq2.

Consider `CCc1nnc(-c2c(OC)cc(-c3cnc4cc(-c5cnn(C)c5)ccn34)cc2OC)o1` [SK-124, 2-[2,6-Dimethoxy-4-[7-(1-methylpyrazol-4-yl)imidazo[1,2-a]pyridin-3-yl]phenyl]-5-ethyl-1,3,4-oxadiazole], for which the “PTH-like effects in vivo” value in assay [1] is “PTH-like effects in vivo in bone and kidney”. Moreover, in assay [2], the “conserved genes induced with injury and reduced by SK-124” value turned out to be 419 genes; the “conserved genes suppressed by injury and restored by SK-124” value was found to be 373 genes.
